Literature values as cited in patent US6503506B1, “Nutrient therapy for immuno-compromised patients” (Millenium Biotechnologies, Inc., priority 2001, dated 2003).

Tests used:
mitochondrial DNA = details: patients on long-term therapy

COC1=C(OC)C(=O)C(C/C=C(\C)CC/C=C(\C)CC/C=C(\C)CC/C=C(\C)CC/C=C(\C)CC/C=C(\C)CC/C=C(\C)CC/C=C(\C)CC/C=C(\C)CCC=C(C)C)=C(C)C1=O [COQ10, Coenzyme Q10]
T4/T8 ratios of lymphocytes (HIV patients, oral administration): positive increase in T4/T8 rations | IgG and T4-lymphocytes (human studies, administered orally): increases IgG and T4-lymphocytes

Cc1cn([C@H]2C[C@H](N=[N+]=[N-])[C@@H](CO)O2)c(=O)[nH]c1=O [zidovudine (AZT), zidovudine]
levels of mitochondrial DNA in muscle (mitochondrial DNA): depletes levels of mitochondrial DNA in muscle

superoxide dismutase [SOD]
levels of the virus core protein (HIV; indicator of virus presence in the cells): reduced the levels of the virus core protein | spread of HIV through infected cells (HIV; infected white blood cells from patients with HIV): slowed down the spread of HIV through the infected cells
